{"source": "paper PMC11272598", "about": "“RG7774 (Vicasinabin), an orally bioavailable cannabinoid receptor 2 (CB2R) agonist, decreases retinal vascular permeability, leukocyte adhesion, and ocular inflammation in animal models” (Frontiers in Pharmacology, 2024)", "key": {"[1]": {"assay": "Ocular tissue PK in rats", "format": "in vivo", "conditions": "26 days of oral administration, 3 and 30 mg/kg/day", "protocol": "The plasma PK profile of RG7774 was assessed in adult male C57BL/6J mice and female Wistar rats (Charles River, Cologne, Germany) housed in a controlled environment (temperature, humidity, and 12 h light/dark cycle) with unrestricted access to food and water. The ocular PK profile of RG7774 was assessed in adult female […] rats (Charles River, Mattawan, MI, United States) housed in a controlled environment (21°C–22°C temperature, 40%–60%, humidity, and 12 h light/dark cycle) with unrestricted access to food and water and conducted according to local regulations by EyeCRO (Ann Arbor, MI, United States).\n[…] […] Samples were collected from the tail vein or via heart puncture (terminal) and prepared within 30 min of collection by centrifugation at 3,000 g for 5 min at 4°C and were immediately frozen. RG7774 concentrations in plasma and homogenized tissues were determined using LC-MS/MS. PK parameters were estimated by non-compartmental analysis of plasma data using Phoenix WinNonlin software (Certara, Princeton, NJ, United States)."}, "[2]": {"assay": "Hepatocyte clearance", "format": "in vitro ADME", "conditions": "read-out: Hepatocyte CL", "protocol": "For animals, hepatocyte suspension cultures were either freshly prepared by liver perfusion or from cryopreserved hepatocyte batches (BioIVT, NY, USA). For humans, commercially-available, pooled (5–20 donors), cryopreserved human hepatocytes from nontransplantable liver tissues were used (BioIVT). Suspension cultures were incubated in Nunc U96 PP-0.5 mL plates (Nunc Natural, 267245) in a Thermo Forma incubator (Fischer Scientific, Wohlen, Switzerland) equipped with Variomag® Teleshake shakers (Sterico, Wangen, Switzerland) to maintain cell dispersion. The cell culture medium was William’s media supplemented with glutamine, antibiotics, insulin, dexamethasone, and 10% FCS. RG7774 (1 μM) were incubated in 96-well plates containing suspension cultures (1 × 10^6 hepatocytes/mL [~1 mg/mL protein concentration]), with each well containing a total volume of 100 μL. Plates were shaken at 900 rpm for up to 2 h in 5% CO2 at 37 °C. Reactions were quenched after 3, 6, 10, 20, 40, 60, and 120 min with 200 μL methanol containing an internal standard. Samples were cooled, centrifuged, and analyzed by LC-MS/MS. Log peak area ratios (test compound peak area/internal standard peak area) or concentrations were plotted against incubation time using a linear fit to the data with emphasis on the initial rate of compound disappearance."}, "[3]": {"test_system": "laser-induced CNV", "assay": "Laser-induced CNV in rats, fluorescein angiography lesion area", "format": "in vivo, Brown Norway rats", "conditions": "CNV rat model, ED50 0.037 mg/kg", "protocol": "Male Brown Norway rats (Charles River, Sulzfeld, Germany) aged 9 weeks and weighing 200 g on arrival ([…] after 1 week) were housed in individually ventilated GR1800 cages (Tecniplast, Pontremoli, Italy) with a maximum density of n = 5 rats per cage with the same litter and sex. The room was kept at 20°C–24°C with 50%–60% humidity and a 12/12 h light-dark cycle with ad libitum access to standard diet and water.\nRG7774 was formulated (w/w) in 0.1% hydroxyethyl cellulose, 1% polysorbate 80, 0.18% methylparaben, 0.02% propylparaben, and 0.21% citric acid monohydrate, adjusted to pH 6 using NaOH. Three studies with 20 rats each were performed. […] The wellbeing of the animals was monitored daily, and free access was granted to food and water. […] Body weight was continuously monitored, and oral doses of RG7774 were adjusted accordingly. […]\nRats were anesthetized 1 week after laser injury using fentanyl 0.005 mg/kg, medetomidine 0.15 mg/kg, and midazolam 2 mg/kg. […] Retinal vessels and neovascularization were visualized by switching to fluorescence mode.\nImages taken by the Heidelberg Spectralis HRA system were manually analyzed for the degree of CNV within the lesion (fluorescent) area and the affected area (in mm^2) was calculated using the Heidelberg Eye Explorer imaging program (Heidelberg Spectralis HRA, Heidelberg Engineering, Heidelberg, Germany). […]"}}, "note": "Where two headings read alike, the source gives them in different places."}
{"smiles": "Cn1nnnc1Cn1nnc2c(N3CC[C@H](O)C3)nc(C(C)(C)C)nc21", "note": "[RG7774, (S)-1-(5-tert-butyl-3-[(1-methyl-1H-tetrazol-5-yl)methyl]-3H-[1,2,3]triazolo[4,5-d]pyrimidin-7-yl)pyrrolidin-3-ol]", "values": [{"measurement": "concentrations in retina and choroid/retinal pigment epithelium tissues relative to plasma", "setting": "[1]", "result": "in the same range as the total plasma concentration"}, {"measurement": "exposure in the vitreous humor relative to plasma", "setting": "[1]", "result": "closer to that found in free plasma"}, {"measurement": "hepatocyte CLint at 1 µM", "setting": "[2]; human, pooled cryopreserved human hepatocytes in suspension", "result": 1.7, "unit": "µL/min/1e6 cells"}, {"measurement": "hepatocyte CLint at 1 µM", "setting": "[2]; mouse", "result": 49.3, "unit": "µL/min/1e6 cells"}, {"measurement": "hepatocyte CLint at 1 µM", "setting": "[2]; rat", "result": 37.9, "unit": "µL/min/1e6 cells"}, {"measurement": "maximum concentration of the free active epimer in plasma associated with the ED50", "setting": "[3]", "result": 12.5, "unit": "nM"}, {"measurement": "average concentration of the free active epimer in plasma associated with the ED50", "setting": "[3]; S/R-enantiomer ratio of 2 assumed", "result": 1.05, "unit": "nM"}]}
